Test results: patent publication US8598158B2, “Fused tricyclic compounds for the treatment of inflammatory disorders” (Merck Sharp & Dohme Corp., priority 2009, dated 2013)

These molecules were tested against MK2 kinase (Homo sapiens, UniProt P49137) (assay: bMK2 IMAP assay). Details: not given.
Sequence of MK2 kinase (P49137 whole entry): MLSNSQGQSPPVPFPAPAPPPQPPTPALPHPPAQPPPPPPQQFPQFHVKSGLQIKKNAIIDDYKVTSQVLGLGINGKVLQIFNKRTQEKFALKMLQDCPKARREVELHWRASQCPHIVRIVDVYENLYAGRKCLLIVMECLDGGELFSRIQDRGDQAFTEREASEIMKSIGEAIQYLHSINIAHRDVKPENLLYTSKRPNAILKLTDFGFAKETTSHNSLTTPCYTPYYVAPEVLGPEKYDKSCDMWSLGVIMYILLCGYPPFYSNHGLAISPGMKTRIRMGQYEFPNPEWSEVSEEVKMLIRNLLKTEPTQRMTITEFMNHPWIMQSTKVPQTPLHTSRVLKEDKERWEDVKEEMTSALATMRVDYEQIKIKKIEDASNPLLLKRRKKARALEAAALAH

| IC50 | SMILES |
| --- | --- |
| 100 to 1000 nM | O=C1c2oc(-c3ccc(Cl)cc3)cc2Cc2cc(C3CCNCC3)ccc2N1Cc1ccccc1-c1ccccc1 [Compound 16] |
| 1000 to 10000 nM | O=C1c2sc(-c3ccc(Cl)cc3)cc2Cc2cc(N3CCNCC3)ccc2N1Cc1ccccn1 [Compound 24] |
| 10 to 100 nM | COc1ccc(-c2ccccc2CN2C(=O)c3oc(-c4ccc(Cl)cc4)cc3Cc3cc(N4CCNCC4)ccc32)cn1 [Compound 17] |
| 100 to 1000 nM | N#Cc1ccc(-c2cc3c(s2)C(=O)N(Cc2ccccc2-c2cncnc2)c2ccc(N4CCNCC4)cc2C3)cc1 [Compound 27] |
| 10 to 100 nM | COc1ncc(-c2ccccc2CN2C(=O)c3oc(-c4ccc(Cl)cc4)cc3Cc3cc(N4CCNCC4)ccc32)cn1 [Compound 22] |
| 1000 to 10000 nM | O=C1Nc2ccc(N3CCNCC3)cc2Cc2cc(-c3ccc(Cl)cc3)sc21 [Compound 23] |
| 1000 to 10000 nM | N#Cc1ccc(-c2cc3c(s2)C(=O)N(Cc2ccccn2)c2ccc(N4CCNCC4)cc2C3)cc1 [Compound 26] |
| 10 to 100 nM | CN1CCN(c2ccc3c(c2)Cc2cc(-c4ccc(Cl)cc4)oc2C(=O)N3Cc2ccccc2-c2cccnc2)CC1 [Compound 6] |
| 10 to 100 nM | Nc1ccc(-c2ccccc2CN2C(=O)c3oc(-c4ccc(Cl)cc4)cc3Cc3cc(N4CCNCC4)ccc32)cn1 [Compound 11] |
| 1000 to 10000 nM | O=C1c2oc(-c3ccccc3)cc2Cc2cc(C3CCNCC3)ccc2N1Cc1ccccc1-c1ccccc1 [Compound 20] |
| 1000 to 10000 nM | N#Cc1ccc(-c2cc3c(s2)C(=O)Nc2ccc(N4CCNCC4)cc2C3)cc1 [Compound 25] |
| 1 to 10 nM | COCN1C(=O)c2oc(-c3ccc(C#N)cc3)cc2Cc2cc(N3CCNCC3)ccc21 [Compound 13] |
| 100 to 1000 nM | O=C1Nc2ccc(C3CCNCC3)cc2Cc2cc(-c3ccccc3)oc21 [Compound 18] |
| 10 to 100 nM | COc1ccncc1-c1ccccc1CN1C(=O)c2oc(-c3ccc(Cl)cc3)cc2Cc2cc(N3CCNCC3)ccc21 [Compound 21] |

Same assay, conditions: IC50 Value, IMAP fluorescence polarization; 100 μM ATP, 50 pM MK2, 100 nM TAMRA peptide substrate

| IC50 | SMILES |
| --- | --- |
| 10 to 100 nM | O=C1c2oc(-c3ccc(Cl)cc3)cc2Cc2cc(N3CCNCC3)ccc2N1Cc1ccccc1-c1cccnc1 [Compound 5] |

Same assay, conditions: IC50 values, IMAP fluorescence polarization; 100 μM ATP, 50 pM MK2, 100 nM TAMRA peptide substrate

| IC50 | SMILES |
| --- | --- |
| 38.3 nM | O=C1c2oc(-c3ccc(Cl)cc3)cc2Cc2cc(N3CCNCC3)ccc2N1Cc1ccccc1-c1cccnc1 [Compound 5] |
